US20200289482A1, “CYSTIC FIBROSIS TRANSMEMBRANE CONDUCTANCE REGULATOR MODULATORS FOR TREATING AUTOSOMAL DOMINANT POLYCYSTIC KIDNEY DISEASE” (The Johns Hopkins University, priority 2017, published 2020)

Experiments:
[1] = tested on: model ADPKD cell line (PN=pkd−/− knockout); experiment: In vitro cystogenesis (3D Matrigel culture), cyst size; format: cell-based, mouse; parameters: cyst size, drug treatment regime incl. established cysts: dose or concentration left out as unconfirmed
[2] = tested on: Hsp27; experiment: Western blot of Hsp27 in kidney tissue lysates; format: in vivo, mouse; settings: cyst induced pkd−/− mice, VX-809 30 mg/kg BW
Description: (§1) FIG. 7A, FIG. 7B, FIG. 7C, FIG. 7D, FIG. 7E, and FIG. 7F show chaperone expression is altered in mice by VX-809. (FIG. 7A-FIG. 7B) Representative Western blot images of HSP27, 70, 90 and HSP40 in lysates of kidney tissue from no cyst induced (ND), cyst induced with Doxycycline (D) or cyst induced pkd−/− mice treated with VX-809 (D+VX-809) 30 mg/kg BW. (FIG. 7C, FIG. 7D, FIG. 7E, and FIG. 7F) Columns represent averages±standard errors of HSP27, 70, 90 and HSP40 expression. Data were analyzed by non-parametric t-test. n=4 for each treated and control groups. Black lines between lanes represent representative experiments from the same gel. *P<0.05; **P<0.01; To facilitate their growth in the kidney, cysts have developed an altered network of proteins that most likely serves to protect them from stress (34). Next, it was determined whether VX-809 would alter the levels of Hsps in pkd−/− mice and in PN cells. […] Hsp 27, 70 and 90 are all elevated in cystic kidneys compared to normal controls. […] There is no change in Hsp 40. […] Both sets of data are consistent with an alteration in the heat shock response to cyst growth.

[3] = tested on: Hsp70; experiment: Western blot of Hsp70 in kidney tissue lysates; format: in vivo, mouse; settings: cyst induced pkd−/− mice, VX-809 30 mg/kg BW
Description: as §1

[4] = tested on: Hsp27; experiment: Western blot of Hsp27 in PN cells; format: cell-based, mouse; settings: VX-809 10 μM 16 h
Description: FIG. 8A, FIG. 8B, FIG. 8C, FIG. 8D, FIG. 8E, FIG. 8F, FIG. 8G, and FIG. 8H show chaperone expression is altered in PH and PN cells by VX-809. (FIG. 8A) Western blot showing expression of HSP27, 70 and HSP 90 in VX-809 treated or control PN cells. […] (FIG. 8E). Western blot of HSP27, 70 and 90 in PH vs. PN cells. […] Whereas, Hsp70 is higher in PH vs. PN cells. Data were analyzed by non-parametric t test. Experiment was repeated 4-5 times. Cells were grown in 10-cm culture dishes at permissive conditions (33° C.) with γ-interferon in culture media. Cells were then transferred to non-permissive conditions at 37° C., γ-interferon free culture media and evaluated at full confluence. At day four, cells were treated with VX-809 (10 μM) for 16 h and harvested on fifth day for assay. *P<0.05., **P<0.01, ***P<0.001, ****P<0.0001; To facilitate their growth in the kidney, cysts have developed an altered network of proteins that most likely serves to protect them from stress (34). Next, it was determined whether VX-809 would alter the levels of Hsps in pkd−/− mice and in PN cells. […] Hsp 27, 70 and 90 are all elevated in cystic kidneys compared to normal controls. […] There is no change in Hsp 40. […] Both sets of data are consistent with an alteration in the heat shock response to cyst growth.

[5] = tested on: Hsp70; experiment: Cycloheximide chase, disappearance of Hsp70 in PN cells; format: cell-based, mouse; settings: VX-809 10 μM with cycloheximide 25 μM
Description: (§2) FIG. 9A, FIG. 9B, FIG. 9C, FIG. 9D, FIG. 9E, FIG. 9F, FIG. 9G, and FIG. 9H show Hsp27, HSp70, and Hsp90 expression in PN cells treated with VX-809 and/or cycloheximide. (A) Pkd1 null (PN) cells were treated with VX-809 (10 μM) and/or with cycloheximide (25 μM) for indicated time points before being harvested for the assay. (FIG. 9A) Western blot showing expression of Hsp27, Hsp70, and Hsp90 in VX-809-(16 h), cycloheximide-treated, or control PN cells. ((FIG. 9B. (FIG. 9C, and (FIG. 9D) Columns represent averages±standard errors of Hsp27, Hsp70, and Hsp90 expression in cells treated with VX-809 and/or cycloheximide. ((FIG. 9E) Western blot showing expression of Hsp27, Hsp70, and Hsp90 in PN cells treated with VX-809+cycloheximide or control PN cells. ((FIG. 9F, (FIG. 9G, and (FIG. 9H) Columns represent averages±standard errors of Hsp27, Hsp70, and Hsp90 expression in cells treated only with cycloheximide or in control PN cells. Data were analyzed by non-parametric t-test. The experiments were repeated 3-5 times. *P<0.05, **P<0.01;
(§3) To gain more insight into the mechanism whereby VX-809 alters Hsp protein levels, translation was inhibited by using cycloheximide (35) and the disappearance of the three Hsps was monitored. […] Hsp 90 was reduced by approximately 25%, and Hsp27 was unchanged.

[6] = tested on: Hsp90; experiment: Cycloheximide chase, disappearance of Hsp90 in PN cells; format: cell-based, mouse; settings: VX-809 10 μM with cycloheximide 25 μM
Description: as §2, §3

[7] = tested on: Ero1; experiment: Western blot of ER stress marker Ero1 in kidney tissue; format: in vivo, mouse; settings: cyst induced pkd−/− mice, VX-809 30 mg/kg BW
Description: (§4) FIG. 11A. FIG. 11B, FIG. 11C, FIG. 11D, and FIG. 11E show expression of ER stress markers GRP78, ErO1, and GADD in Pkd1^−/− mice treated with VX-809. (FIG. 11A & FIG. 11D) Representative Western blot images of GRP78, ErO1, and GADD in lysates of kidney tissue from no cyst induced (ND), cyst induced with doxycycline (D) or cyst induced pkd−/− mice treated with VX-809 (D+VX-809) 30 mg/kg BW. (FIG. 11B, FIG. 11C and FIG. 11E) Columns represent averages±standard errors of GRP78, ErO1, and GADD153 expression. Data were analyzed by non-parametric t-test. n=4 for each treated and control groups. Black lines between lanes represent representative experiments from the same gel but loaded in different lanes. **P<0.01, ***P<0.001;
(§5) Given that VX-809 alters an ensemble of Hsps, it was evaluated whether VX-809 alters proteins associated with ER stress. To address this question, the levels of three ER stress-associated proteins were measured, 78-kDa glucose-regulated protein (GRP78), ER oxidoreductin 1 (Ero1) and DNA damage-inducible protein 3 (GADD153), also known as C/EBP homologous protein (CHOP) (37). The results are depicted in FIG. 11 show no changes in GRP78 or Ero1 in response to VX-809.

[8] = tested on: GADD153; experiment: Western blot of ER stress marker GADD153 in kidney tissue; format: in vivo, mouse; settings: cyst containing mice, VX-809 30 mg/kg BW
Description: as §4, §5

lumacaftor [VX-809] was tested, and the cyst growth ([1]; 10 μM, plus or minus forskolin, treated on Days 0, 2, 4, 6, 8, 10, 12, 14, pictures Day 16) was “reduce cyst growth equally well in the presence and absence of forskolin”, the “cyst size, drug treatment regime incl. established cysts” value ([1]; every other day, or from Days 9-16 on established cysts, in the presence of forskolin) was “dramatically reducing cyst size” and the “Hsp27 expression in kidneys” value [2] was “significantly less expression”. For the same substance, the “Hsp70 expression in kidneys” value [3] was “significantly less expression”, the “Hsp27 expression in PN cells” value [4] was “reduced expression” and the “Hsp70 levels over the 8-h period relative to time 0” value [5] was “approximately half the level observed at time 0”. The “Hsp 90 reduction over the 8-h period” value [6] was “approximately 25%”, the Ero1 expression [7] was “no changes” and the “GADD153 expression (Western blot)” value [8] was “equally dramatic reduction in GADD153”.
